Assay results taken from patent US12077503B2, “Substituted cyclic amides and their use as herbicides” (FMC CORPORATION, priority 2015, dated 2024).

Assays:
Assay type in all cases: in vivo
Kochia (Kochia scoparia) [1] = experiment: Test A preemergence; conditions: Preemergence
In short: (§1)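 Seeds sprayed preemergence with a directed soil spray, or plants at 2 to 10 cm height and one- to two-leaf stage sprayed postemergence, with test chemicals in a non-phytotoxic solvent mixture containing surfactant, in loam soil–sand blend. Injury rated visually against untreated controls after about 10 d in greenhouse, 0 (no effect) to 100 (complete control).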

[2] = test system: barnyardgrass (Echinochloa crus-galli); experiment: Test A preemergence; conditions: Preemergence
In short: as §1

[3] = test system: giant foxtail (Setaria faberii); experiment: Test A preemergence; conditions: Preemergence
In short: as §1

[4] = test system: pigweed (Amaranthus retroflexus); experiment: Test A preemergence; conditions: Preemergence
[5] = test system: ragweed (common ragweed, Ambrosia elatior); experiment: Test A preemergence; conditions: Preemergence
In short: as §1

[6] = test system: ryegrass, Italian (Italian ryegrass, Lolium multiflorum); experiment: Test A preemergence; conditions: Preemergence
In short: as §1

[7] = test system: Galium (catchweed bedstraw, Galium aparine); experiment: Test A postemergence
In short: as §1

Kochia (Kochia scoparia) [8] = experiment: Test A postemergence
In short: as §1

[9] = test system: barnyardgrass (Echinochloa crus-galli); experiment: Test A postemergence
In short: as §1

[10] = test system: blackgrass (Alopecurus myosuroides); experiment: Test A postemergence
In short: as §1

corn (Zea mays) = experiment: Test A postemergence
In short: as §1

[11] = test system: giant foxtail (Setaria faberii); experiment: Test A postemergence
In short: as §1

[12] = test system: pigweed (Amaranthus retroflexus); experiment: Test A postemergence
In short: as §1

[13] = test system: ragweed (common ragweed, Ambrosia elatior); experiment: Test A postemergence
In short: as §1

[14] = test system: ryegrass, Italian (Italian ryegrass, Lolium multiflorum); experiment: Test A postemergence
In short: as §1

[15] = test system: wheat (Triticum aestivum); experiment: Test A postemergence
In short: as §1

[16] = test system: barnyardgrass (Echinochloa crus-galli); experiment: Test B flooded paddy test; conditions: Flood, 250 g ai/ha; 0 to 100 scale where 0 is no effect and 100 is complete control; 13 to 15 d
In short: (§2)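 2-leaf plants; pots flooded 3 cm over soil; cpd added to paddy water; depth held; greenhouse 13–15 d; visual rating vs controls, 0 = no effect, 100 = complete control.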

[17] = test system: ducksalad (Heteranthera limosa); experiment: Test B flooded paddy test; conditions: Flood, 250 g ai/ha; 0 to 100 scale where 0 is no effect and 100 is complete control; 13 to 15 d
In short: as §2

rice (Oryra sativa) = experiment: Test B flooded paddy test; conditions: Flood, 250 g ai/ha; 0 to 100 scale where 0 is no effect and 100 is complete control; 13 to 15 d
In short: as §2

[18] = test system: sedge, umbrella (small-flower umbrella sedge, Cyperus difformis); experiment: Test B flooded paddy test; conditions: Flood, 250 g ai/ha; 0 to 100 scale where 0 is no effect and 100 is complete control; 13 to 15 d
In short: as §2

[19] = test system: barnyardgrass (Echinochloa crus-galli); experiment: Test C flooded paddy test; conditions: Flood, 0 is no effect, 100 is complete control
Text: (§3) Plant species in the flooded paddy test consisted of rice (Oryza sativa), sedge, umbrella (small-flower umbrella sedge, Cyperus difformis), ducksalad (Heteranthera limosa), and barnyardgrass (Echinochloa crus-galli) grown to the 2-leaf stage for testing. At time of treatment, test pots were flooded to 3 cm above the soil surface, treated by application of test compounds directly to the paddy water, and then maintained at that water depth for the duration of the test. Treated plants and controls were maintained in a greenhouse for 13 to 15 d, after which time all species were compared to controls and visually evaluated. Plant response ratings, summarized in Table C, are based on a scale of 0 to 100 where 0 is no effect and 100 is complete control. A dash (-) response means no test result.

[20] = test system: ducksalad (Heteranthera limosa); experiment: Test C flooded paddy test; conditions: Flood, 0 is no effect, 100 is complete control
Text: as §3

rice (Oryza sativa) = experiment: Test C flooded paddy test; conditions: Flood, 0 is no effect, 100 is complete control
Text: as §3

[21] = test system: sedge, umbrella (small-flower umbrella sedge, Cyperus difformis); experiment: Test C flooded paddy test; conditions: Flood, 0 is no effect, 100 is complete control
Text: as §3

[22] = 125 g ai/ha, visual injury after approximately 10 d, 0 to 100 scale where 0 is no effect and 100 is complete control
[23] = 500 g ai/ha, visual injury approx. 10 d
[24] = 125 g ai/ha, postemergence, visual rating after approx. 10 d, 0 to 100 scale (0 no effect, 100 complete control)
[25] = Postemergence, 500 g ai/ha, 0 to 100 scale where 0 is no effect and 100 is complete control

C=CCN1CC(c2cccc(C(F)(F)F)c2)C(C(=O)Nc2cccc(F)c2F)C1=O (stereo not shown) [Compound 606]
Plant response rating, Kochia (Kochia (Kochia scoparia) [1]; [22]): 0 | Kochia plant response rating (0 to 100 scale, 0 is no effect, 100 is complete control) (Kochia (Kochia scoparia) [1]; [23]): 0 | Plant response rating, Barnyardgrass [2, 22]: 50 | Barnyardgrass plant response rating (0 to 100 scale, 0 is no effect, 100 is complete control) [2, 23]: 80 | Plant response rating, Foxtail, Giant [3, 22]: 80 | Foxtail, Giant plant response rating (0 to 100 scale, 0 is no effect, 100 is complete control) [3, 23]: 90 | Plant response rating, Pigweed [4, 22]: 0 | Pigweed plant response rating (0 to 100 scale, 0 is no effect, 100 is complete control) [4, 23]: 0 | Plant response rating, Ragweed [5, 22]: 0 | Ragweed plant response rating (0 to 100 scale, 0 is no effect, 100 is complete control) [5, 23]: 0 | Plant response rating, Ryegrass, Italian [6, 22]: 0 | Ryegrass, Italian plant response rating (0 to 100 scale, 0 is no effect, 100 is complete control) [6, 23]: 0 | Plant response rating, Galium [7, 24]: 60 | Plant response rating, Galium [7, 25]: 70 | Plant response rating, Kochia (Kochia (Kochia scoparia) [8]; [24]): 0 | Plant response rating, Kochia (Kochia (Kochia scoparia) [8]; [25]): 0 | Plant response rating, Barnyardgrass [9, 24]: 50 | Plant response rating, Barnyardgrass [9, 25]: 70 | Plant response rating, Blackgrass [10, 24]: 0 | Plant response rating, Blackgrass [10, 25]: 40 | Plant response rating, Corn (corn (Zea mays); [24]): 0 | Plant response rating, Corn (corn (Zea mays); [25]): 0 | Plant response rating, Foxtail, Giant [11, 24]: 70 | Plant response rating, Foxtail, Giant [11, 25]: 90 | Plant response rating, Pigweed [12, 24]: 50 | Plant response rating, Pigweed [12, 25]: 70 | Plant response rating, Ragweed [13, 24]: 0 | Plant response rating, Ragweed [13, 25]: 0 | Plant response rating, Ryegrass, Italian [14, 24]: 0 | Plant response rating, Ryegrass, Italian [14, 25]: 0 | Plant response rating, Wheat [15, 24]: 0 | Plant response rating, Wheat [15, 25]: 0 | Plant response rating, Barnyardgrass [16]: 50 | Plant response rating, Ducksalad [17]: 0 | Plant response rating, Rice (rice (Oryra sativa)): 0 | Plant response rating, Sedge, Umbrella [18]: 40 | Plant response rating (scale of 0 to 100), Barnyardgrass ([19]; 31 g ai/ha): 0 | Plant response rating (scale of 0 to 100), Barnyardgrass ([19]; 62 g ai/ha): 0 | Plant response rating (scale of 0 to 100), Barnyardgrass ([19]; 125 g ai/ha): 20 | Plant response rating (scale of 0 to 100), Barnyardgrass ([19]; 250 g ai/ha): 40 | Plant response rating (scale of 0 to 100), Ducksalad ([20]; 31 g ai/ha): 0 | Plant response rating (scale of 0 to 100), Ducksalad ([20]; 62 g ai/ha): 0 | Plant response rating (scale of 0 to 100), Ducksalad ([20]; 125 g ai/ha): 50 | Plant response rating (scale of 0 to 100), Ducksalad ([20]; 250 g ai/ha): 70 | Plant response rating (scale of 0 to 100), Rice (rice (Oryza sativa); 31 g ai/ha): 0 | Plant response rating (scale of 0 to 100), Rice (rice (Oryza sativa); 62 g ai/ha): 0 | Plant response rating (scale of 0 to 100), Rice (rice (Oryza sativa); 125 g ai/ha): 0 | Plant response rating (scale of 0 to 100), Rice (rice (Oryza sativa); 250 g ai/ha): 0 | Plant response rating (scale of 0 to 100), Sedge, Umbrella ([21]; 31 g ai/ha): 0 | Plant response rating (scale of 0 to 100), Sedge, Umbrella ([21]; 62 g ai/ha): 0 | Plant response rating (scale of 0 to 100), Sedge, Umbrella ([21]; 125 g ai/ha): 0 | Plant response rating (scale of 0 to 100), Sedge, Umbrella ([21]; 250 g ai/ha): 0
